Experimental findings from patent US20250051526A1, “POLYMERS COMPRISING GLYCOLIPIDS AND METHODS FOR PRODUCING AND USING THE SAME” (priority 2021, published 2025) are described below.

The nature of the experiment: binding preference from monorhamnolipid-metal conditional stability constants for 26 metals. The conditions noted are these: metals of environmental concern (e.g., Cd, Pd, Hg) versus common soil and water cations. From the text: They are considered “green” molecules due to their natural products from bacteria (e.g., Pseudomonas aeruginosa), biodegradability, and low toxicity. The present inventors have experimentally determined the monorhamnolipid-metal conditional stability constants ([…]) for 26 metals of interest.

Consider monorhamnolipid, for which the “binding preference for metals of environmental concern over common soil and water cations” value was 6-8 orders of magnitude.
